# Experimental data as given in patent US4358461A, “Antiallergic agent” (Takeda Chemical Industries, Ltd., priority 1980, dated 1982).
# System: SRS-A
# Assay: Inhibitory action on the generation and release of SRS-A (sensitized guinea pig lung fragment; method of Orange and Moore, SRS-A assayed by method of Brocklehurst)
# Type: cell-based, guinea pig (Hartley strain)
# Details: egg albumin antigen
# Text: The action of the antiallergic agent of this invention to inhibit the production of SRS-A was investigated by the method of Orange and Moore [J. Immunol.
substance,measurement,setting,value
baicalein phosphate disodium [BPS],Inhibitory action (percent inhibition of generation and release of SRS-A due to antigen-antibody interaction),concentration 10 (so in the source),18.7 ± 6.6%
same,Inhibitory action (percent inhibition of generation and release of SRS-A due to antigen-antibody interaction),concentration 100 (so in the source),50.8 ± 10.7%
